Test results from ChEMBL document CHEMBL4513141, “CO-ADD screening of NIH (USA) - Clinical Collection” (2021).
Converted amounts (≈) assume the structure as drawn. Counter-ions that a name gives are not always drawn.

Tests used:
Pseudomonas aeruginosa = experiment: microbe, parasite or virus in culture; conditions: ATCC 27853, 18 h, ASSAY_TEST Inhibition of Bacterial Growth, detection method Absorption (OD600), MEDIA CAMHB, plate type 384well, NBS, CORNING #3640
Description: Antibacterial activity against Pseudomonas aeruginosa ATCC 27853 (CO-ADD:GN_042); MIC in CAMBH media using NBS plates, by OD(600)

Staphylococcus aureus = experiment: microbe, parasite or virus in culture; conditions: ATCC 43300, 18 h, ASSAY_TEST Inhibition of Bacterial Growth, detection method Absorption (OD600), MEDIA CAMHB, plate type 384well, NBS, CORNING #3640
Description: Antibacterial activity against Staphylococcus aureus MRSA ATCC 43300 (CO-ADD:GP_020); MIC in CAMBH media, using NBS plates, by OD(600)

Acinetobacter baumannii = experiment: microbe, parasite or virus in culture; conditions: ATCC 19606, 18 h, ASSAY_TEST Inhibition of Bacterial Growth, detection method Absorption (OD600), MEDIA CAMHB, plate type 384well, NBS, CORNING #3640
Description: Antibacterial activity against Acinetobacter baumannii ATCC 19606 (CO-ADD:GN_034); MIC in CAMBH media using NBS plates, by OD600

HEK293 = experiment: cells; format: functional, Homo sapiens, ATCC CRL1573; conditions: ASSAY_TEST Inhibition of Cell Viability, detection method Resazurin, Fluorescence (ex560/em590), MEDIA DMEM with 10% FBS, plate type 384well, TC, CORNING #3712, time 18 hr
Escherichia coli = experiment: microbe, parasite or virus in culture; conditions: ATCC 25922, 18 h, ASSAY_TEST Inhibition of Bacterial Growth, detection method Absorption (OD600), MEDIA CAMHB, plate type 384well, NBS, CORNING #3640
Description: Antibacterial activity against Escherichia coli ATCC 25922 (CO-ADD:GN_001); MIC in CAMBH media using NBS plates, by OD(600)

Candida albicans = experiment: microbe, parasite or virus in culture; conditions: ATCC 90028, ASSAY_TEST Inhibition of Fungal Growth, detection method Absorption (OD530), plate type 384well, NBS, CORNING #3640
Description: Antifungal activity against Candida albicans ATCC 90028 (CO-ADD:FG_001); MIC in YNB media using NBS plates, by OD630

Klebsiella pneumoniae = experiment: microbe, parasite or virus in culture; conditions: ATCC 700603, 18 h, ASSAY_TEST Inhibition of Bacterial Growth, detection method Absorption (OD600), MEDIA CAMHB, plate type 384well, NBS, CORNING #3640
Description: Antibacterial activity against Klebsiella pneumoniae MDR ATCC 70063 (CO-ADD:GN_003); MIC in CAMBH media using NBS plates, by OD(600)

[1] = Homo sapiens, ATCC CRL1573, HEK293

Description for Cryptococcus neoformans: Antifungal activity against Cryptococcus neoformans H99 ATCC 208821 (CO-ADD:FG_002); MIC in YNB media using NBS plates, by Resazurin OD(600-570)

Structure (SMILES) | MIC (Pseudomonas aeruginosa) [µM] | MIC (Staphylococcus aureus) [µM] | MIC (Cryptococcus neoformans) [µM] | MIC (Acinetobacter baumannii) [µM] | CC50 (HEK293; [1]) [µM] | MIC (Escherichia coli) [µM] | MIC (Candida albicans) [µM] | MIC (Klebsiella pneumoniae) [µM] | CC50 (HEK293) [µM]
Cc1nnc(SCC2=C(C(=O)O)N3C(=O)C(NC(=O)Cn4cnnn4)C3SC2)s1 (stereo not given) | > 10 | > 10 | > 10 | > 10 | > 10 | > 10 | > 10 | > 10 | –
Clc1ccc(COC(Cn2ccnc2)c2ccc(Cl)cc2Cl)c(Cl)c1 (stereo not given) [MICONAZOLE NITRATE] | > 10 | > 10 | 0.625 | > 10 | > 10 | > 10 | ≤ 0.0781 | > 10 | –
COc1cccc2c1C(=O)c1c(O)c3c(c(O)c1C2=O)C[C@@](O)(C(=O)CO)C[C@@H]3O[C@H]1C[C@H](N)[C@H](O)[C@H](C)O1 [DOXORUBICIN HYDROCHLORIDE] | > 10 | 10 | > 10 | > 10 | > 10 | > 10 | > 10 | > 10 | –
CCn1cc(C(=O)O)c(=O)c2ccc(C)nc21 [NALIDIXIC ACID] | > 10 | > 10 | > 10 | > 10 | > 10 | > 10 | > 10 | > 10 | –
C=CC[C@@H]1C=C(C)C[C@H](C)C[C@H](OC)[C@H]2O[C@@](O)(C(=O)C(=O)N3CCCC[C@H]3C(=O)O[C@H](/C(C)=C/[C@@H]3CC[C@@H](O)[C@H](OC)C3)[C@H](C)[C@@H](O)CC1=O)[C@H](C)C[C@@H]2OC | > 10 | > 10 | ≤ 0.0781 | > 10 | > 10 | > 10 | > 10 | > 10 | –
Cc1cn([C@H]2C[C@H](N=[N+]=[N-])[C@@H](CO)O2)c(=O)[nH]c1=O [ZIDOVUDINE] | > 10 | > 10 | > 10 | > 10 | > 10 | 5 (≈ 1.34 µg/mL) | > 10 | 5 (≈ 1.34 µg/mL) | –
CC(=O)N1CCN(c2ccc(OCC3COC(Cn4ccnc4)(c4ccc(Cl)cc4Cl)O3)cc2)CC1 (stereo not given) [KETOCONAZOLE] | > 10 | > 10 | 2.5 (≈ 1.33 µg/mL) | > 10 | > 10 | > 10 | 0.156 (≈ 0.0831 µg/mL) | > 10 | –
COc1ccc2[nH]c([S+]([O-])Cc3ncc(C)c(OC)c3C)nc2c1 (stereo not given) [OMEPRAZOLE MAGNESIUM] | > 10 | > 10 | > 10 | > 10 | > 10 | > 10 | > 10 | > 10 | –
CN(C)[C@@H]1C(O)=C(C(N)=O)C(=O)[C@@]2(O)C(O)=C3C(=O)c4c(O)cccc4[C@@](C)(O)[C@H]3C[C@@H]12 [TETRACYCLINE] | > 10 | > 10 | > 10 | > 10 | > 10 | > 10 | > 10 | > 10 | –
CCCCCCCCCOc1ccc2[nH]cc(CCN)c2c1 | > 10 | > 10 | > 10 | > 10 | 4.05 | > 10 | > 10 | > 10 | –
COc1cc(Cc2cnc(N)nc2N)cc(OC)c1OC [TRIMETHOPRIM] | > 10 | 5 (≈ 1.45 µg/mL) | > 10 | > 10 | > 10 | 1.25 (≈ 0.363 µg/mL) | > 10 | 10 (≈ 2.9 µg/mL) | –
COc1cc(C)c(Cc2cnc(N)nc2N)cc1OC [ORMETOPRIM] | > 10 | 5 (≈ 1.37 µg/mL) | > 10 | > 10 | > 10 | 5 (≈ 1.37 µg/mL) | > 10 | > 10 | –
CCC(C)n1ncn(-c2ccc(N3CCN(c4ccc(OCC5COC(Cn6cncn6)(c6ccc(Cl)cc6Cl)O5)cc4)CC3)cc2)c1=O (stereo not given) [ITRACONAZOLE] | > 10 | > 10 | 0.156 (≈ 0.11 µg/mL) | > 10 | > 10 | > 10 | ≤ 0.0781 | > 10 | –
CCN(CC)C(=S)SSC(=S)N(CC)CC | > 10 | > 10 | 5 (≈ 1.48 µg/mL) | > 10 | 5.04 | > 10 | 2.5 (≈ 0.741 µg/mL) | > 10 | –
C=CC1=C(C(=O)O)N2C(=O)[C@@H](NC(=O)/C(=N/OCC(=O)O)c3csc(N)n3)[C@H]2SC1 | > 10 | > 10 | > 10 | > 10 | > 10 | 2.5 (≈ 1.13 µg/mL) | > 10 | > 10 | –
CCn1cc(C(=O)O)c(=O)c2cc(F)c(N3CCNCC3)cc21 [NORFLOXACIN] | > 10 | 5 (≈ 1.6 µg/mL) | > 10 | 5 (≈ 1.6 µg/mL) | > 10 | 0.625 (≈ 0.2 µg/mL) | > 10 | 10 (≈ 3.19 µg/mL) | –
C[C@H]1COc2c(C3(N)CC3)c(F)cc3c(=O)c(C(=O)O)cn1c23 [PAZUFLOXACIN] | 1.25 (≈ 0.398 µg/mL) | 0.625 (≈ 0.199 µg/mL) | > 10 | 2.5 (≈ 0.796 µg/mL) | > 10 | ≤ 0.0781 | > 10 | 1.25 (≈ 0.398 µg/mL) | –
CC(C)/N=c1\cc2n(-c3ccc(Cl)cc3)c3ccccc3nc-2cc1Nc1ccc(Cl)cc1 [CLOFAZIMINE] | > 10 | > 10 | > 10 | > 10 | – | > 10 | > 10 | > 10 | 0.31
CC[C@H]1OC(=O)[C@H](C)[C@@H](O[C@H]2C[C@@](C)(OC)[C@@H](O)[C@H](C)O2)[C@H](C)[C@@H](O[C@@H]2O[C@H](C)C[C@H](N(C)C)[C@H]2O)[C@](C)(OC)C[C@@H](C)C(=O)[C@H](C)[C@@H](O)[C@]1(C)O [CLARITHROMYCIN] | 10 (≈ 7.48 µg/mL) | > 10 | > 10 | > 10 | > 10 | > 10 | > 10 | > 10 | –
CCOc1ccc2ccccc2c1C(=O)N[C@@H]1C(=O)N2[C@@H]1SC(C)(C)[C@@H]2C(=O)O [NAFCILLIN SODIUM] | > 10 | 1.25 | > 10 | > 10 | > 10 | > 10 | > 10 | > 10 | –
Oc1c(Cl)cc(Cl)c2cccnc12 [CHLOROXINE] | > 10 | > 10 | 2.5 (≈ 0.535 µg/mL) | > 10 | > 10 | > 10 | 1.25 (≈ 0.268 µg/mL) | > 10 | –
CCOC(=O)CCC(=O)OC1C(OC2C(C)C(OC3CC(C)(OC)C(O)C(C)O3)C(C)C(=O)OC(CC)C(C)(O)C(O)C(C)C(=O)C(C)CC2(C)O)OC(C)CC1N(C)C (stereo not given) | > 10 | > 10 | > 10 | > 10 | > 10 | > 10 | > 10 | > 10 | –
CO[C@H]1/C=C/O[C@@]2(C)Oc3c(C)c(O)c4c(O)c(c(C=NN5CCN(C6CCCC6)CC5)c(O)c4c3C2=O)NC(=O)/C(C)=C\C=C\[C@H](C)[C@H](O)[C@@H](C)[C@@H](O)[C@@H](C)[C@H](OC(C)=O)[C@@H]1C | 10 (≈ 8.77 µg/mL) | ≤ 0.0781 | > 10 | > 10 | > 10 | 10 (≈ 8.77 µg/mL) | > 10 | > 10 | –
Cc1onc(-c2c(Cl)cccc2Cl)c1C(=O)N[C@@H]1C(=O)N2[C@@H]1SC(C)(C)[C@@H]2C(=O)O | > 10 | 0.625 (≈ 0.294 µg/mL) | > 10 | > 10 | > 10 | > 10 | > 10 | > 10 | –
CC1(C)SC2C(NC(=O)Cc3ccccc3)C(=O)N2C1C(=O)O (stereo not given) | > 10 | > 10 | > 10 | > 10 | > 10 | > 10 | > 10 | > 10 | –
Nc1ncn([C@@H]2O[C@H](CO)[C@@H](O)[C@H]2O)c(=O)n1 [AZACITIDINE] | > 10 | > 10 | > 10 | > 10 | > 10 | 10 (≈ 2.44 µg/mL) | > 10 | > 10 | –
CCCCc1oc2ccccc2c1C(=O)c1cc(I)c(OCCN(CC)CC)c(I)c1 [AMIODARONE HYDROCHLORIDE] | > 10 | > 10 | 10 | > 10 | > 10 | – | > 10 | > 10 | –
